The values below come from patent US20250129067A1 (Progentos Therapeutics, Inc., priority 2021, published 2025).

Like-named read-outs stand apart in the source and are kept apart here.

One data set concerns MBP (myelin) in brain. Briefly: Remyelination in chronically demyelinated mice (cuprizone model), MBP staining. Format: in vivo, C57BL/6 mice. Conditions: for In vivo MBP Increases: MBP staining at day 10 after the first dose, blinded score. As to the method:
The ability of newly constructed compounds (described in above Examples) to induce remyelination after demyelination in adult mice was tested using a cuprizone model. Cuprizone administration specifically induces the loss of myelin and oligodendrocytes. Mice were maintained on cuprizone chow to induce demyelination, the cuprizone was discontinues, and the compounds were administered. The animals were sacrificed 10 days after compound administration was initiated and their brains sections and stained for MBP, an important component of myelin.
The chow was stored at 4° C. until use.
Mice were allowed ad libitum access to cuprizone chow. […] The cuprizone diet was discontinued 24 hours before compound treatment was initiated.
To assess oligodendrocyte differentiation, the mice were euthanized and assessed at day 3 after the first dose. To assess MBP expression, the animals were euthanized and assessed at day 10 after the first dose.
For some compounds, MBP intensity, an intensity weighted positive pixel count, was measured using an algorithm developed in Visiopharm Software.

The test system of data set [1] is GPR17+ cells (newly differentiated oligodendrocytes). Briefly: In vivo OPC differentiation, GPR17+ cells in brain.
A short description of the next data set: In vivo half-life. Conditions: comparison in words.
Data set [2] concerns Oligodendrocyte progenitor cells (OPCs). Briefly: In vitro OPC differentiation assay, MBP expression (immunocytochemistry). Conditions: 72 hours of treatment; fold change over vehicle.
In a further data set the target is PDGFRα (Homo sapiens (Human), UniProt P16234). Briefly: PDGFRα kinase enzyme assay (Promega PDGFRα Kinase Enzyme System, ADP-Glo). Conditions: 150 uM ATP. It is filed as biochemical. In short, it runs like this: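 Purified PDGFRα protein (20 ng) reacted with test compound per the Promega kinase system protocol. ADP formed was measured by ADP-Glo luminescence against a standard curve, giving IC50.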
PDGFRα, sequence (P16234 24-1089): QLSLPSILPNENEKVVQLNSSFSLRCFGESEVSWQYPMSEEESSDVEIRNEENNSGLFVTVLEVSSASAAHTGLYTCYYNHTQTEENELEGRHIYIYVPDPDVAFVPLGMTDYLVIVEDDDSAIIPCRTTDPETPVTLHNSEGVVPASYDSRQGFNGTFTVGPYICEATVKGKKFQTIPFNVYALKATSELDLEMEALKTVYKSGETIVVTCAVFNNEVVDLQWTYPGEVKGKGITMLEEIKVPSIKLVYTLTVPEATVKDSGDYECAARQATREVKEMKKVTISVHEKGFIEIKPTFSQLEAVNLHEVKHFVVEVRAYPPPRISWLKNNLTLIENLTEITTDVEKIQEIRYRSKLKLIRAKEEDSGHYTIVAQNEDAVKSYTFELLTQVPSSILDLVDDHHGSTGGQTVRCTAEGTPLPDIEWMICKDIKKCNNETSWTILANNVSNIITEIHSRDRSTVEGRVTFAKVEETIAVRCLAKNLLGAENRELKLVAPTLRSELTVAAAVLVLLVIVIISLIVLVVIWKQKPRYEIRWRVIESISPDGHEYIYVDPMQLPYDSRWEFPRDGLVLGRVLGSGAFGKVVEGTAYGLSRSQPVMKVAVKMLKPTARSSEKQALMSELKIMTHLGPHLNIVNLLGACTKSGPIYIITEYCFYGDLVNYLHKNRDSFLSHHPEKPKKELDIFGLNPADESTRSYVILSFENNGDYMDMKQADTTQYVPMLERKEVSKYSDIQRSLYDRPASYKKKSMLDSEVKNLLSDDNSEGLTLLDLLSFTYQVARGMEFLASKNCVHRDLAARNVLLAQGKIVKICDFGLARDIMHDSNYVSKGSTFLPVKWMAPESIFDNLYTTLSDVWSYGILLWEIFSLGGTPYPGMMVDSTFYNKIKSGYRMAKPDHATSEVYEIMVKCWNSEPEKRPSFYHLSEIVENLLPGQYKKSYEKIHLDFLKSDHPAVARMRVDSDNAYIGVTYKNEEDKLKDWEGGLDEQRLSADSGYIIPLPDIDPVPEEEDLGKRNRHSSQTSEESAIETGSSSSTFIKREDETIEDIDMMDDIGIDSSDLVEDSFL

Data set [3] has as its system Oligodendrocyte progenitor cells (OPCs). Briefly: In vitro OPC differentiation assay, GPR17 expression (immunocytochemistry). Conditions: 72 hours, fold change over vehicle; for GPR17 Fold Induction (Over Vehicle; 3 μM): 3 μM (10× concentration, final 0.3 μM).
Data set [4] deals with NG2+ cells (OPCs) in brain. Briefly: OPC population recovery after administration of PDGFRα inhibitor, NG2 staining. Format: in vivo, C57BL/6 mice. Conditions: mice. As to the method:
OPCs first appear during embryonic organogenesis and continue to exist in adult brain (in both gray and white matter), maintaining their population through self-renewal. To assess whether PDGFRα inhibitors described herein have an effect on the maintenance of the OPC population when administered in vivo, two different PDGFRα inhibitors were tested, each having a different in vivo half-life. Then, the expression of NG2 (marker for OPCs) was assessed in the brains of the treated mice at various time points after treatment as described in more detail below.
The mice received a single administration of either Compound 6 (10 mg/kg) or Compound 78 (5 mg/kg). Control animals received a vehicle control. Then, at days 3, 6, 9, or 12 days after dosing, some of the animals from each of the treatment groups were sacrificed and their brains were harvested for analysis.
The floating sections were incubated with a rabbit anti-NG2 antibody (EMD Millipore, catalog no. AB5320) (i.e., the primary antibody) diluted in blocking solution (to a concentration of 1:1000) overnight at room temperature on a shaker.
NG2 staining was assessed by an observer blinded to the treatment condition and given a score from 1 to 5, with 5 representing the level of OPC population observed in naïve animals that had not received an exemplar PDGFRα inhibitor.

Data set [5] deals with GPR17+ cells in brain tissue. Briefly: Differentiation of newly generated OPCs after a second dose, GPR17+ cells. It is filed as in vivo, C57BL/6 mice. As to the method: Further to the results provided above in Example 244, it was assessed whether OPCs that are newly generated (i.e., through self-renewal) after PDGFRα inhibitor administration have the ability to differentiate into mature oligodendrocytes. As described below, testing this made use of the transient characteristics of GPR17 expression. […] Therefore, the effects of a first and second dose of compound can be distinguished from one another. In these experiments, mice received a first dose of either vehicle or compound, which differentiated the OPCs and reduced the size of the OPC population. Five, fourteen, or twenty-one days later, mice received a second dose of compound and the response to the second dose was measured. These intervals tested whether newly generated OPCs could respond to compound and differentiate into oligodendrocytes. It also tested what the minimum interval was between two doses to get a nearly full response from the second dose.
Mice were treated with a vehicle control and/or Compound 78. The specific treatment groups were as follows: (1) single dose of the vehicle control on day 1; (2) a dose of the vehicle control on day 0 and a dose of compound 78 on day 5; (3) a first dose of compound 78 on day 0 and a second dose of compound 78 on day 5; (4) a first dose of compound 78 on day 0 and a second dose of compound 78 on day 14; and (5) a first dose of compound 78 on day 0 and a second dose of compound 78 on day 21. As described in the above examples, the animals were sacrificed three days after the last dose and their brains were harvested for analysis. GPR17+ expression in the brain tissue was assessed as described herein. Then, the mice were sacrificed 3 days after the second dose and the brains were harvested for analysis.
Histology was performed as described in Example 244 using reagents described in Table xx (below).
Images obtained from the histology preparations were analyzed using a custom protocol implemented with Visiopharm software to count GPR17+ cells.

The mark [6] stands for this setting: 20 ng purified PDGFRα, Poly (Glu4Tyr1) substrate, two hours, 11-point dose response, read-out: IC50 Values on PDGFRα Kinase Inhibition.
[7] abbreviates: 11-point dose response, 10,000 nM to 0.169 nM, BLQ = below limit of quantitation, read-out: IC50 Values on PDGFRα Kinase Inhibition, IC50.
The mark [8] stands for this setting: Mus musculus, po, 24 h, read-out: GPR17 Fold Induction (Over Vehicle).

Turning to `Cn1cc(-c2cc3c(N4CCN(c5ncc([C@@](C)(N)c6ccc(F)cc6)cn5)CC4)ncnn3c2)cn1` [Avapritinib, avapritinib, reference compound], the “In vivo MBP Increases” value in the data set on MBP (myelin) in brain is “++++ (given a score from 1 to 5)”.
As to `CN1CCC[C@@H]1CCO[C@](C)(c1ccccc1)c1ccc(Cl)cc1` [Clemastine, clemastine, reference compound], in the data set with MBP (myelin) in brain, the “In vivo MBP Increases” value was “+ (given a score from 1 to 5)”. The “In vivo GPR17+ cells, GPR17 Fold Induction (Over Vehicle)” value in data set [1] (adult female C57BL/6 mice, PO or IP, treatment period 1-3 days, entire brain, fold change over vehicle treated animals) came out at 1.55.
The IC50 is the concentration at which inhibition is half-maximal. Consider `Cn1cc(-c2ccc3c(N4CCN(c5ncc(Cc6ccccc6)cn5)CC4)cnn3c2)cn1` [Compound 6, 3-[4-(5-benzylpyrimidin-2-yl)piperazin-1-yl]-6-(1-methyl-1H-pyrazol-4-yl)pyrazolo[1,5-a]pyridine], for which the Half-life result in the data set “In vivo half-life” is “longer half-life”. Besides, the “MBP Fold Induction (Over vehicle)” value in data set [2] is recorded as 2.95. In addition, in the data set with MBP (myelin) in brain, the “In vivo MBP Increases” value was “+++++ (5 representing the level of myelination observed in naïve, healthy animals that had not undergone demyelination)”. In addition, the “MBP expression within the different regions of the brain” value with MBP (myelin) in brain (single dose, versus vehicle control) is listed as “significant increase in MBP expression”. For the same compound, the IC50 on PDGFRα (setting [6]) was under 1000 nM; at PDGFRα (setting [7]), 407 nM. Besides, the “GPR17 Fold Induction (Over Vehicle; 3 μM)” value in data set [3] is listed as 4.47. Also, in data set [3] (5 μM (10× concentration, final 0.5 μM)), the “GPR17 Fold Induction (Over Vehicle; 5 μM)” value turned out to be 4.07. The fold induction at 150 mg/kg in data set [1] (setting [8]) was 18.7.
As to `C[C@@H](OC(=O)N1CCN(c2cnn3cc(-c4cnn(C)c4)ccc23)CC1)c1ccc(Cl)cc1` [Compound 78, (1R)-1-(4-Chlorophenyl)ethyl 4-[6-(1-methyl-1H-pyrazol-4-yl)pyrazolo[1,5-a]pyridin-3-yl]piperazine-1-carboxylate], the “Time post administration until number of OPCs in the brain was comparable to control animals” value in data set [4] (single administration 5 mg/kg) is “about 9 days”. Further, the “OPC population recovery after 6 days” value in data set [4] (single administration, Compound 78 compared to Compound 6) is on record as “greater recovery”. For the same compound, the “GPR17+ cells within the brain tissue” value in data set [5] (Group 2: vehicle on day 0, first dose of compound on day 5, sacrificed three days after the last dose) is listed as “significant numbers of GPR17+ cells”. Also, the “GPR17+ cells after second dose” value in data set [5] (Group 3: two doses at a dosing interval of 5 days, compared to dosing intervals of 14 days and 21 days) is recorded as “significantly fewer GPR17+ cells”. In addition, the “Dosing interval necessary to see any effect on oligodendrocyte generation from the second administration” value in data set [5] (mice, two separate doses) is given as “greater than 5 days”. Besides, the Half-life entry in “In vivo half-life” is reported as “shorter half-life than Compound 6”. The “MBP Fold Induction (Over vehicle)” value in data set [2] was 10.93. Further, the IC50 at PDGFRα (setting [6]) was under 1000 nM; at PDGFRα (setting [7]), under 0.17 nM. In data set [3], the “GPR17 Fold Induction (Over Vehicle; 3 μM)” value came to 13.71. In addition, in data set [1] (setting [8]), the fold induction at 3 mg/kg came out at 14.9.
Take `Cn1cc(-c2ccc3c(N4CCN(C(=O)NCc5ccc(Cl)cc5)CC4)cnn3c2)cn1` [Compound 275, N-(4-chlorobenzyl)-4-[6-(1-methyl-1H-pyrazol-4-yl)pyrazolo[1,5-a]pyridin-3-yl]piperazine-1-carboxamide]: the “MBP Fold Induction (Over vehicle)” value in data set [2] is reported as 2.71. The 50% inhibitory concentration (IC50) at PDGFRα (setting [7]) was determined as 67 nM. For the same compound, in data set [3], the “GPR17 Fold Induction (Over Vehicle; 3 μM)” value stood at 6.70. Moreover, the fold induction at 3 mg/kg in data set [1] (setting [8]) is 5.31.
For the compound `Cn1cc(-c2ccc3c(N4CCN(C(=O)N5CCC[C@@H]5c5ccc(Cl)cc5)CC4)cnn3c2)cn1` [Compound 277, 3-(4-{[(2R)-2-(4-chlorophenyl)pyrrolidin-1-yl]carbonyl}piperazin-1-yl)-6-(1-methyl-1H-pyrazol-4-yl)pyrazolo[1,5-a]pyridine], the “MBP Fold Induction (Over vehicle)” value in data set [2] was found to be 8.37. Also, at PDGFRα (setting [7]), the IC50 turned out to be 208 nM. In data set [3], the “GPR17 Fold Induction (Over Vehicle; 3 μM)” value turned out to be 5.36. The fold induction at 3 mg/kg in data set [1] (setting [8]) worked out at 0.96.
In the case of `CC1CC(OC(=O)N2CCN(c3cnn4cc(-c5cnn(C)c5)ccc34)CC2)C1` (stereo not drawn) [Compound 309, 3 methylcyclobutyl 4-[6-(1-methyl-1H-pyrazol-4-yl)pyrazolo[1,5-a]pyridin-3-yl]piperazine-1-carboxylate], the “MBP Fold Induction (Over vehicle)” value in data set [2] worked out at 5.13. Moreover, the IC50 on PDGFRα (setting [7]) worked out at 824 nM. In data set [3], the “GPR17 Fold Induction (Over Vehicle; 3 μM)” value was determined as 6.67. Also, the fold induction at 10 mg/kg in data set [1] (setting [8]) was determined as 1.2.
In the case of `C[C@@H](OC(=O)N1CCN(c2cnn3cc(-c4cnn(C)c4)ccc23)CC1)c1ccc(Cl)c(Cl)c1` [Compound 311, (1R)-1-(3,4-dichlorophenyl)ethyl 4-[6-(1-methyl-1H-pyrazol-4-yl)pyrazolo[1,5-a]pyridin-3-yl]piperazine-1-carboxylate], the “MBP Fold Induction (Over vehicle)” value in data set [2] is reported as 10.47. Further, at PDGFRα (setting [7]), the concentration for half-maximal inhibition (IC50) was found to be 39.1 nM. Also, the “GPR17 Fold Induction (Over Vehicle; 3 μM)” value in data set [3] is given as 5.77. In addition, in data set [1] (setting [8]), the fold induction at 3 mg/kg is 2.52.
The corresponding values for `C[C@@H](OC(=O)N1CCN(c2cnn3cc(-c4cnn(C)c4)ccc23)CC1)c1ccc2ccccc2c1` [Compound 312, (1R)-1-(2-naphthyl)ethyl 4-[6-(1-methyl-1H-pyrazol-4-yl)pyrazolo[1,5-a]pyridin-3-yl]piperazine-1-carboxylate] are 18.49, 145 nM, 9.00 and 1.53.
As for `C[C@@H](OC(=O)N1CCN(c2cnn3cc(-c4cnn(C)c4)ccc23)CC1)c1ccc(C(F)(F)F)cc1` [Compound 313, (1R)-1-[4-(trifluoromethyl)phenyl]ethyl 4-[6-(1-methyl-1H-pyrazol-4-yl)pyrazolo[1,5-a]pyridin-3-yl]piperazine-1-carboxylate], the “MBP Fold Induction (Over vehicle)” value in data set [2] is given as 116.12. In addition, the “IC50 Values on PDGFRα Kinase Inhibition, IC50 (nM)” value on PDGFRα (11-point dose response, 10,000 nM to 0.169 nM, BLQ = below limit of quantitation) is “BLQ”. The “GPR17 Fold Induction (Over Vehicle; 3 μM)” value in data set [3] amounted to 10.56. In addition, the fold induction at 3 mg/kg in data set [1] (setting [8]) stood at 10.5.
In the case of `Cn1cc(-c2ccc3c(N4CCN(C(=O)OCc5ccc(C#N)cc5)CC4)cnn3c2)cn1` [Compound 316, 4-cyanobenzyl 4-[6-(1-methyl-1H-pyrazol-4-yl)pyrazolo[1,5-a]pyridin-3-yl]piperazine-1-carboxylate], the “MBP Fold Induction (Over vehicle)” value in data set [2] worked out at 34.99. Further, the half-inhibitory concentration (IC50) on PDGFRα (setting [7]) came out at 194 nM. Also, the “GPR17 Fold Induction (Over Vehicle; 3 μM)” value in data set [3] came out at 9.10. Further, the fold induction at 3 mg/kg in data set [1] (setting [8]) was found to be 2.36.
